Measurements from patent US20170080049A1, “MEDICINE AGAINST GROWTH FAILURE INDUCED BY ADMINISTRATION OF STEROID” (DAIICHI SANKYO COMPANY, LIMITED, priority 2014, published 2017).
Positions of bridges follow the written chain, without caps; N, C: chain ends. Residues, ends and D or L forms follow the SMILES beside them. No end group written: not given here.

Key:
Type in all cases: in vivo
[1] = system: steroid-induced growth failure, male Crlj:WI (Wistar) rat; assay: Simultaneous combined administration test of various steroids and CNP derivative (A) in rats (Example 5); conditions: for Body length at dissection / Body length, variation from preadministration value (Δ value) / Body weight, variation from preadministration value (Δ value) / Right femur length at dissection / Tail length at dissection / Tail length, variation from preadministration value (Δ value) / Body weight at dissection: 1 mL/kg s.c. once a day 28 days, + medium or + CNP derivative (A) 1 mg/kg, n=5; for Body weight at dissection: 4-week-old male Wistar rat
Description: 0.3 mg/mL solution of dexamethasone (dexamethasone injection “KS”, available from Kyoritsuseiyaku Corporation diluted with saline), prednisolone succinate suspended in 0.1% polysorbate-containing brine (available from Wako Pure Chemical Industries, Ltd., concentration of 5 mg/mL as prednisolone), or betamethasone dipropionate suspended in 0.1% polysorbate-containing brine (available from Wako Pure Chemical Industries, Ltd., concentration of 0.3 mg/mL as betamethasone) was administered to the hypoderm of the back of a 4-week-old male Crlj:WI (Wistar) rat (ten animals for each set of substances) in a volume of 1 mL/kg once a day for 28 days. No substance was administered to the control group (5 animals, Group 1). At the same time, for five of ten animals in each set (Group 2, Group 4, Group 6) a medium (0.03 mol/L acetate buffer (pH 4.0)/1% benzyl alcohol/10% sucrose) and for the remaining five animals (Group 3, Group 5, Group 7) the medium and a 1 mg/mL solution of CNP derivative (A) were administered in combination in the hypoderm of the back in a volume of 1 mL/kg once a day for 28 days. After measuring the body weight, the body length and the tail length under isoflurane anesthesia on the day after the final day of administration, blood was collected from the abdominal aorta and the animal was caused to die, the right femur was extracted and the femur length was measured.

[2] = system: dexamethasone-induced rat growth failure model; assay: Combined administration study of human-type CNP-53 or various CNP derivatives in dexamethasone-induced rat growth failure model (Example 3); conditions: for plasma cholesterol concentration and thymus weight vs single administration group of dexamethasone (in words): combined with dexamethasone, 28 days; for Plasma cholesterol concentration / thymus body weight ratio / thymus weight at dissection: dexamethasone 0.67 mg/mL pump alone or combined with 15 mg/mL pump of the CNP peptide, continuous s.c. 28 days, 5-week-old male Wistar rat, n=5
Description: Osmotic pumps (MINI-OSMOTIC PUMP Model 2004, available from DURECT CORPORATION, flow rate: 0.25 μL/hr, for 28 days) were charged with 0.67 mg/mL solution of dexamethasone (dexamethasone injection “KS”, available from Kyoritsuseiyaku Corporation) and one osmotic pump was embedded in the hypoderm of the back of each 5-week-old male Crlj:WI (Wistar) rat (5 animals/group, Groups 2 to 6, a total of 25 animals). At the same time, one osmotic pump (the same as above) charged with a 15 mg/mL solution of CNP derivative (A) in Group 3, human-type CNP-53 in Group 4, CNP derivative (B) in Group 5 and CNP derivative (C) in Group 6 was embedded in the hypoderm of the back simultaneously. No substance was administered to the normal control group (Group 1, 5 animals). Then the animals were fed for 28 days, and transitions of the body weight, the body length and the tail length were measured. On the final day, the blood was collected from the abdominal aorta and the animals were caused to die under isoflurane anesthesia, and plasma was separated from the collected blood and the cholesterol concentration was determined by using a “LabAssay (trademark) cholesterol” (available from Wako Pure Chemical Industries, Ltd.). After collecting the blood and causing the animals to die, the right femur and thymus were extracted, and the length of the right femur and the weight of the thymus were measured.

[3] = system: rat growth failure induced by dexamethasone; assay: Action comparing study between CNP derivative (A) and human growth hormone on rat growth failure induced by dexamethasone (Example 6)
Description: Osmotic pumps (MINI-OSMOTIC PUMP Model 2004, available from DURECT CORPORATION, flow rate: 0.25 μL/hr, for 28 days) were charged with a 0.67 mg/mL solution of dexamethasone (dexamethasone injection “KS”, available from Kyoritsuseiyaku Corporation), and one osmotic pump was embedded in the hypoderm of the back of each 4-week-old male Crlj:WI (Wistar) rat (5 animals/group, Group 2 to Group 4, total of 15 animals). For Group 3, a 1 mg/mL solution of CNP derivative (A) (medium: 0.03 mol/L acetate buffer (pH 4.0)/1% benzyl alcohol/10% sucrose), and for Group 4, a 1 mg/mL solution of human-type growth hormone preparation (somatropin BS subcutaneous injection 10 mg “SANDOZ”) diluted with a phosphate buffer was administered to the hypoderm of the back of five rats, respectively, in a volume of 2 mL/kg once a day for 28 days. No substance was administered to the normal control group (5 animals, Group 1). On the final day, after measuring the body weight, the body length and the tail length, the blood was collected from the abdominal aorta and the animal was caused to die under isoflurane anesthesia, the left femur was extracted and the bone length was measured, and then a histopathological specimen of the epiphyseal region was prepared.

[4] = combined with dexamethasone, 28 days
[5] = dexamethasone 0.67 mg/mL pump alone or with CNP derivative (A) or human-type growth hormone 1 mg/mL, 2 mL/kg s.c. once a day 28 days, n=4 or 5

For CCC(=O)OCC(=O)[C@@]1(OC(=O)CC)[C@@H](C)C[C@H]2[C@@H]3CCC4=CC(=O)C=C[C@]4(C)[C@@]3(F)[C@@H](O)C[C@@]21C [Betamethasone, betamethasone dipropionate], the “Body length at dissection” value ([1]; betamethasone 0.3 mg/mL) was 211 ± 2 mm, the “Body length, variation from preadministration value (Δ value)” value ([1]; betamethasone 0.3 mg/mL) was “(59 ± 5) mm” and the “Body weight, variation from preadministration value (Δ value)” value ([1]; betamethasone 0.3 mg/mL) was “(208 ± 10) g”. For the same compound, the “Right femur length at dissection” value ([1]; betamethasone 0.3 mg/mL) was 33.9 ± 0.5 mm, the “Tail length at dissection” value ([1]; betamethasone 0.3 mg/mL) was 213 ± 4 mm and the “Tail length, variation from preadministration value (Δ value)” value ([1]; betamethasone 0.3 mg/mL) was “(82 ± 3) mm”. For the same compound, the “Body weight at dissection” value ([1]; betamethasone dipropionate (0.3 mg/mL as betamethasone)) was 315 ± 11 g and the “growth failure in rats by repeated administration of the steroid for 28 days (in words)” value ([1]; rat, in vivo, sc) was “induce growth failure”.
For CC[C@H](C)[C@@H]1NC(=O)[C@H](CCCNC(=N)N)NC(=O)[C@H](CC(=O)O)NC(=O)[C@H](CC(C)C)NC(=O)[C@H](CCCCN)NC(=O)[C@H](CC(C)C)NC(=O)CNC(=O)[C@H](Cc2ccccc2)NC(=O)[C@@H](NC(=O)CNC(=O)[C@H](CCCCN)NC(=O)[C@H](CO)NC(=O)[C@H](CC(C)C)NC(=O)CNC(=O)[C@H](CCCCN)NC(=O)[C@H](CCCCN)NC(=O)[C@H](CC(N)=O)NC(=O)[C@H](C)NC(=O)CNC(=O)[C@H](CCCCN)NC(=O)[C@H](Cc2ccc(O)cc2)NC(=O)[C@H](CCCCN)NC(=O)[C@H](CCCNC(=N)N)NC(=O)[C@H](C)NC(=O)[C@H](CC(N)=O)NC(=O)[C@@H]2CCCN2C(=O)[C@H](Cc2c[nH]cn2)NC(=O)[C@H](CCC(=O)O)NC(=O)[C@H](CCC(N)=O)NC(=O)CNC(=O)[C@@H]2CCCN2)CSSC[C@@H](C(=O)O)NC(=O)CNC(=O)[C@H](CC(C)C)NC(=O)CNC(=O)[C@H](CO)NC(=O)[C@H](CCSC)NC(=O)[C@H](CO)NC(=O)CNC1=O [CNP derivative (B), Pro-Gly-CNP-37], the “plasma cholesterol concentration and thymus weight vs single administration group of dexamethasone (in words)” value [2] was “a clear difference was not observed”, the Plasma cholesterol concentration [2] was 64.4 ± 0.8 ^NS mg/dL and the “thymus body weight ratio” value [2] was “[0.14 ± 0.04%*]”. The “thymus weight at dissection” value [2] was 0.42 ± 0.14 g.
CC[C@H](C)[C@@H]1NC(=O)[C@H](CCCNC(=N)N)NC(=O)[C@H](CC(=O)O)NC(=O)[C@H](CC(C)C)NC(=O)[C@H](CCCCN)NC(=O)[C@H](CC(C)C)NC(=O)CNC(=O)[C@H](Cc2ccccc2)NC(=O)[C@@H](NC(=O)CNC(=O)[C@H](CCCCN)NC(=O)[C@H](CO)NC(=O)[C@H](CC(C)C)NC(=O)CN)CSSC[C@@H](C(=O)N[C@H](C(=O)N[C@@H](CCC(N)=O)C(=O)N[C@@H](CCC(N)=O)C(=O)N[C@@H](CCCNC(=N)N)C(=O)N[C@@H](CCCCN)C(=O)N[C@@H](CCC(=O)O)C(=O)N[C@@H](CO)C(=O)N[C@@H](CCCCN)C(=O)N[C@@H](CCCCN)C(=O)N2CCC[C@H]2C(=O)N2CCC[C@H]2C(=O)N[C@@H](C)C(=O)N[C@@H](CCCCN)C(=O)N[C@@H](CC(C)C)C(=O)N[C@@H](CCC(N)=O)C(=O)N2CCC[C@H]2C(=O)N[C@@H](CCCNC(=N)N)C(=O)O)C(C)C)NC(=O)CNC(=O)[C@H](CC(C)C)NC(=O)CNC(=O)[C@H](CO)NC(=O)[C@H](CCSC)NC(=O)[C@H](CO)NC(=O)CNC1=O [CNP derivative (C), CNP (1-22) Ghrelin (12-28, SEQ ID NO: 8)] (H-GLSKGCFGLKLDRIGSMSGLGCVQQRKESKKPPAKLQPR-OH; disulfide 6-22) was tested, and the “plasma cholesterol concentration and thymus weight vs single administration group of dexamethasone (in words)” value [2] was “a clear difference was not observed”, the Plasma cholesterol concentration [2] was 59.2 ± 7.4 ^NS mg/dL and the “thymus body weight ratio” value [2] was “[0.11 ± 0.02% ^NS]”. The “thymus weight at dissection” value [2] was 0.35 ± 0.06 g.
With C[C@]12C=CC(=O)C=C1CC[C@@H]1[C@@H]2[C@@H](O)C[C@@]2(C)[C@H]1CC[C@]2(O)C(=O)COC(=O)CCC(=O)O [prednisolone succinate] the “Body length at dissection” value ([1]; prednisolone 5 mg/mL) was 209 ± 4 mm, the “Body length, variation from preadministration value (Δ value)” value ([1]; prednisolone 5 mg/mL) was “(58 ± 4) mm” and the “Body weight, variation from preadministration value (Δ value)” value ([1]; prednisolone 5 mg/mL) was “(191 ± 14) g”. For the same compound, the “Right femur length at dissection” value ([1]; prednisolone 5 mg/mL) was 33.3 ± 0.3 mm, the “Tail length at dissection” value ([1]; prednisolone 5 mg/mL) was 206 ± 6 mm and the “Tail length, variation from preadministration value (Δ value)” value ([1]; prednisolone 5 mg/mL) was “(79 ± 9) mm”. The “Body weight at dissection” value ([1]; prednisolone succinate (5 mg/mL as prednisolone)) was 298 ± 14 g and the “growth failure in rats by repeated administration of the steroid for 28 days (in words)” value ([1]; s.c. once a day 28 days, body weight gain, body, tail and femur length, p<0.05 or 0.01) was “induce growth failure”.
With “DLRVDTKSRAAWARLLQEHPNARKYKGANKKGLSKGCFGLKLDRIGSMSGLGC (disulfide 37-53) [human-type CNP-53]” the “plasma cholesterol concentration and thymus weight vs single administration group of dexamethasone (in words)” value [2] was “a clear difference was not observed”, the Plasma cholesterol concentration [2] was 62.1 ± 2.2 ^NS mg/dL and the “thymus body weight ratio” value [2] was “[0.11 ± 0.01% ^NS]”. For the same compound, the “thymus weight at dissection” value [2] was 0.33 ± 0.03 g.
For “human-type growth hormone: human-type growth hormone preparation, existing therapeutic drug for dwarfism”, the “elongation of the body length and the tail length vs dexamethasone-only administration group (in words)” value [3, 4] was “no significant difference”, the “left femur length on the final day vs dexamethasone-only administration group (in words)” value [3, 4] was “No significant difference” and the “Body weight at dissection” value ([3]; dexamethasone 0.67 mg/mL pump 28 days alone or with CNP derivative (A) or human-type growth hormone 1 mg/mL, 2 mL/kg s.c. once a day 28 days, 4-week-old male Wistar rat, mean ± SD, n=4 or 5) was 255 ± 7 g. For the same compound, the “Body length at dissection” value [3, 5] was 199 ± 5 mm, the “Body length, variation from pre-administration value (Δ value)” value [3, 5] was “(44.8 ± 3.7) mm” and the “Body weight, variation from pre-administration value (Δ value)” value [3, 5] was “(149 ± 3) g”. For the same compound, the “Left femur length at dissection” value [3, 5] was 31.7 ± 0.6 mm, the “Tail length at dissection” value [3, 5] was 199 ± 3 mm and the “Tail length, variation from pre-administration value (Δ value)” value [3, 5] was “(66.8 ± 5.0) mm”. For the same compound, the “growth plate cartilage layer of the epiphyseal region of the left femur (in words)” value ([3]; histology, toluidine blue (FIG. 5), tendency, combinations compared with dexamethasone only) was “swelling”.
